# From ChEMBL document CHEMBL1201862, “PubChem BioAssay data set” (2004)
# Activity calls are given as the source filed them.
# Experiments:
# Insulin-degrading enzyme [1] = target: T1, Insulin-degrading enzyme (Homo sapiens, UniProt P14735); experiment: activators of endogenous IDE in HEK cells, dose response, cell-based, fluorescence polarization (AID 588439); assay type: functional
# T1 sequence (P14735 whole entry): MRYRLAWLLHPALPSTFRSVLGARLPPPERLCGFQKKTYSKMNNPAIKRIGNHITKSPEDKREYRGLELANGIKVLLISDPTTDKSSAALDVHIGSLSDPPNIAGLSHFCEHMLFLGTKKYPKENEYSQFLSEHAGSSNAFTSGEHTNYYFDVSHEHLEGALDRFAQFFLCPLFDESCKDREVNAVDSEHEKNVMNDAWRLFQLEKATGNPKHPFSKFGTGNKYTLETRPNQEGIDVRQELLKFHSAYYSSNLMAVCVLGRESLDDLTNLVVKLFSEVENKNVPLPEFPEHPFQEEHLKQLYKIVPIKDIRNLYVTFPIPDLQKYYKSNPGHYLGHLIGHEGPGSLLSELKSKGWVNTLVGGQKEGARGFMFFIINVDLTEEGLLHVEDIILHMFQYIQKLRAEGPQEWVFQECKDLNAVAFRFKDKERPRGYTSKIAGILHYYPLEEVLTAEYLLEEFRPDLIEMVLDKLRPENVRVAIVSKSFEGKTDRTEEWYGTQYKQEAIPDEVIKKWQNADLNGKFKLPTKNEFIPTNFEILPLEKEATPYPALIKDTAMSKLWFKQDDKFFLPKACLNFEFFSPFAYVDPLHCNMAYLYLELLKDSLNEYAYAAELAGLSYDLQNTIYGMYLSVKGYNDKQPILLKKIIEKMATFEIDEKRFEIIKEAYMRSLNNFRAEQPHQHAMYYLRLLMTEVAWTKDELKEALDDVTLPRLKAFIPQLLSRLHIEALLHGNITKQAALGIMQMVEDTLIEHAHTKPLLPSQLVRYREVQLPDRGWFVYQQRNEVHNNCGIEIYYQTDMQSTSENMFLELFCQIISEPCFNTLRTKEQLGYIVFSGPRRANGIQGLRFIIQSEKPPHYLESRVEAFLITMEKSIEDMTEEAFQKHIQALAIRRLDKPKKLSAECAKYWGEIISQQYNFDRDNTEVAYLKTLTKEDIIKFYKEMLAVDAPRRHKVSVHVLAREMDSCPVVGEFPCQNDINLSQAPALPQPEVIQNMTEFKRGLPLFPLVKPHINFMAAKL
# HEK293 [2] = experiment: optical interference in Abeta FP readout, dose response, artefact control for IDE activator project, biochemical, fluorescence polarization (AID 588442); assay type: functional, cell-based; details: Homo sapiens
# HEK293 [3] = experiment: HEK cell cytotoxicity by LDH release, dose response, cytotoxicity control for IDE activator project, fluorescence, HEK cells (AID 588440); assay type: functional, cell-based; details: Homo sapiens;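 further: cytotoxicity by LDH release measuring loss of membrane integrity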
# Insulin-degrading enzyme [4] = target: T1, Insulin-degrading enzyme; experiment: activators of recombinant IDE enzyme, dose response, counter-screen for IDE activator project, biochemical, fluorescence polarization (AID 588681)
# [5] = THP-1 cell cytotoxicity, dose response, cytotoxicity control for Vif-APOBEC3G degradation inhibitor project, THP-1 cells (AID 1117359); assay type: functional; details: Human immunodeficiency virus 1, THP-1
# [6] = target: T2, Ubiquitin-conjugating enzyme E2 N (Homo sapiens, UniProt P61088); assay type: functional
# T2 sequence (P61088 whole entry): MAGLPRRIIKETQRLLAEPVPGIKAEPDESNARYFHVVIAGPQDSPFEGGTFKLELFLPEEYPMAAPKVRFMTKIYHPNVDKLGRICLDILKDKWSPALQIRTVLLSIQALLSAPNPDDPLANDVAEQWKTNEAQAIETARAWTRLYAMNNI
# [7] = target: T3, DNA repair protein RAD52 homolog (Homo sapiens, UniProt P43351); assay type: functional, biochemical
# T3 sequence (P43351 whole entry): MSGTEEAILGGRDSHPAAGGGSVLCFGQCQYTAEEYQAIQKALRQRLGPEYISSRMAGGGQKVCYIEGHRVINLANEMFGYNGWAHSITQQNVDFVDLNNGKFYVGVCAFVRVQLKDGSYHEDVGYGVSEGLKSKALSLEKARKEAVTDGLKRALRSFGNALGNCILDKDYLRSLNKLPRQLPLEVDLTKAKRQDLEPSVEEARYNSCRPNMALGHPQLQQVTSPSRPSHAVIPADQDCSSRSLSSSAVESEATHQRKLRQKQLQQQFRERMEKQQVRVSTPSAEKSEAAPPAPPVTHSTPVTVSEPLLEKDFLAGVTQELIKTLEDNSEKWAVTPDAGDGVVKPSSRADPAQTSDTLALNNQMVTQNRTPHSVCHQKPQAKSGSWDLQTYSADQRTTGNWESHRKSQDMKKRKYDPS
# [8] = microbe, parasite or virus in culture; assay type: functional; details: Mycobacterium tuberculosis
# Coagulation factor XII = target: T4, Coagulation factor XII (Homo sapiens, UniProt P00748); assay type: functional;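 further: activated factor XIIa alpha cleaving a fluorogenic AMC peptide substrate; inhibitor potency from loss of enzyme activity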
# T4 sequence (P00748 whole entry): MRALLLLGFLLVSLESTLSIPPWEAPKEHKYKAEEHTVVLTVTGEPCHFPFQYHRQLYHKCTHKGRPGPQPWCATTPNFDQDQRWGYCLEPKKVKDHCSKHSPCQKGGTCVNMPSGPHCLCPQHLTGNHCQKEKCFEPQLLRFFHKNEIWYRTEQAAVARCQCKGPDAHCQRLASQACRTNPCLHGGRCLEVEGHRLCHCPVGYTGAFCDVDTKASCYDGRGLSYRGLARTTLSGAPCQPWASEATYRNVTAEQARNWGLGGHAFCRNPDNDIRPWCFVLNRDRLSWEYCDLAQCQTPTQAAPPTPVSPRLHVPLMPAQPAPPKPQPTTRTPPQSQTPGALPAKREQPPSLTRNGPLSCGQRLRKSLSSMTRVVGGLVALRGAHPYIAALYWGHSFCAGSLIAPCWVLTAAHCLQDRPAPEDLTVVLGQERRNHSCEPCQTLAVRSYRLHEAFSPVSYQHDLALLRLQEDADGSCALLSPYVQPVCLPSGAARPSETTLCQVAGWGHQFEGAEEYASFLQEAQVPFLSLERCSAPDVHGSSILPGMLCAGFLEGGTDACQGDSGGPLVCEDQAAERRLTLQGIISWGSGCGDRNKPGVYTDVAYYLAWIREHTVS
# Bcl-2-related protein A1 = target: T5, Bcl-2-related protein A1 (Mus musculus, UniProt Q07440); assay type: functional;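 further: confirmatory dose–response counterscreen on Bfl-1, used to check hits from a UBC13 polyubiquitin inhibitor campaign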
# T5 sequence (Q07440 whole entry): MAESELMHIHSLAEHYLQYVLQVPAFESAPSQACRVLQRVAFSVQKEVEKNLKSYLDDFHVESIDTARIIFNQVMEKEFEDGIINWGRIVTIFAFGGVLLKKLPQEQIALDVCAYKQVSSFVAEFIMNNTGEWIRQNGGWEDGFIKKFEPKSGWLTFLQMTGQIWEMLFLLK
# [9] = HEK293T cytotoxicity, dose response, cytotoxicity control for miR-122 modulator project, cell-based, activator set, cherry-pick (AID 720690); assay type: functional;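 further: HEK293T human cells scored for general mammalian cytotoxicity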
# [10] = miR-122 activators in hepatoma reporter cells, dose response, cell-based, Huh7 psiCHECK-miR122, Renilla luciferase, cherry-picked (AID 651956); assay type: functional;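 further: huh7 hepatoma cells stably carrying a psiCHECK-2 miR-122 sensor plasmid; renilla luciferase signal reporting endogenous miR-122 activity after 48 h compound exposure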
# [11] = target: T2, Ubiquitin-conjugating enzyme E2 N; assay type: functional; remark: listed apart in the source
# [12] = target: MAP kinase-interacting serine/threonine-protein kinase 2 (Homo sapiens, UniProt Q9HBH9); assay type: functional
# MAP kinase-interacting serine/threonine-protein kinase 2, sequence (Q9HBH9 whole entry): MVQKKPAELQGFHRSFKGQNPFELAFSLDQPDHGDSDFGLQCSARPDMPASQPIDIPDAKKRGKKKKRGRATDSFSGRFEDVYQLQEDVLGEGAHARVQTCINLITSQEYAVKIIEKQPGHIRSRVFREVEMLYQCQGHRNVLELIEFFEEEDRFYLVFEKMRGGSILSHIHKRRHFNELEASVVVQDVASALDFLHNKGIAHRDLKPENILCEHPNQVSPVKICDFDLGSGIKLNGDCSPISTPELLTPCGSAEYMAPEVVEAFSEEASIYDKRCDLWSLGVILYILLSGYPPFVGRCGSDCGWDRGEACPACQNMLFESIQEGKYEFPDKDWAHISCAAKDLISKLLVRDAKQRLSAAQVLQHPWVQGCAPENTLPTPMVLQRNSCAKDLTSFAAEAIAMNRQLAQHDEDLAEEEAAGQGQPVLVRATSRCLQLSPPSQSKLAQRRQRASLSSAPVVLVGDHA
# [13] = target: Glycogen synthase kinase-3 beta (Homo sapiens, UniProt P49841); assay type: functional;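 further: value comes from a broad kinome profiling panel, with GSK3B as the panel member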
# Glycogen synthase kinase-3 beta, sequence (P49841 whole entry): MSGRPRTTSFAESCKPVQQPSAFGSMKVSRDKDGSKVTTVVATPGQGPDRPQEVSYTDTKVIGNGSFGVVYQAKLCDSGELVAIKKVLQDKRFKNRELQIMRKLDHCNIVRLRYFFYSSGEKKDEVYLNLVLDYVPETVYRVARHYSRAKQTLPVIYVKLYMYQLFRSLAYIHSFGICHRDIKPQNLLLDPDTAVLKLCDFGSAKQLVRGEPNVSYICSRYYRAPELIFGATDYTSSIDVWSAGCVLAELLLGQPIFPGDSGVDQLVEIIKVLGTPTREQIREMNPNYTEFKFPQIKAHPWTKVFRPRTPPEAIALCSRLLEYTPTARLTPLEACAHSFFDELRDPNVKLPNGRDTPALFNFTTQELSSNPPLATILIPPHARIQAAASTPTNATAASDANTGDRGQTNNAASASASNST
# [14] = target: cAMP-dependent protein kinase catalytic subunit alpha (Homo sapiens, UniProt P17612); assay type: functional
# [15] = target: Cell division cycle 7-related protein kinase (Homo sapiens, UniProt O00311); assay type: functional;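 further: value obtained from a kinome-wide kinase panel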
# Cell division cycle 7-related protein kinase, sequence (O00311 whole entry): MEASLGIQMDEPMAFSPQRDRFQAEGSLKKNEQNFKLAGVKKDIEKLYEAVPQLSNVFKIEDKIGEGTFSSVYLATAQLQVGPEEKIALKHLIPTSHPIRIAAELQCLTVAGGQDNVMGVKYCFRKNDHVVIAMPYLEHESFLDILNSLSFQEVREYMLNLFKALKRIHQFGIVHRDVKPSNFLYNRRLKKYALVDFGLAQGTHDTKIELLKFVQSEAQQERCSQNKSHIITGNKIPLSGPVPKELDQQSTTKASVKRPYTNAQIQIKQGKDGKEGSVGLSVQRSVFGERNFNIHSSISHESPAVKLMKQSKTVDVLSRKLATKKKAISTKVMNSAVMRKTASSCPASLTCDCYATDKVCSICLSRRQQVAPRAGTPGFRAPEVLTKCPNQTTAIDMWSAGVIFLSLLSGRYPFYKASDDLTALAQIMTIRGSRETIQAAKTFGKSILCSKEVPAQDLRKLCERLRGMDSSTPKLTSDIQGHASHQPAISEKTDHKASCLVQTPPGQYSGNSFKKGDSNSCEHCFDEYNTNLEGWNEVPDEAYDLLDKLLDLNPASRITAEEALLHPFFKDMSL
# [16] = target: Serine/threonine-protein kinase pim-1 (Homo sapiens, UniProt P11309); assay type: functional
# Serine/threonine-protein kinase pim-1, sequence (P11309 whole entry): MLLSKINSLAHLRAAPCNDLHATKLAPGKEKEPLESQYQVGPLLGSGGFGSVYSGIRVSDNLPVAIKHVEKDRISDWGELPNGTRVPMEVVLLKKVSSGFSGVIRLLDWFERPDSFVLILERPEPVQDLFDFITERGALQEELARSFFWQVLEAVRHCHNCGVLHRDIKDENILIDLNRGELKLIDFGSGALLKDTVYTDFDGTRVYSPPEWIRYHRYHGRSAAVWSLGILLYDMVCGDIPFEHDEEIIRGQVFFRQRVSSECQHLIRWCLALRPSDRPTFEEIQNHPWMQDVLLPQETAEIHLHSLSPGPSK
# [17] = target: Interleukin-1 receptor-associated kinase 4 (Homo sapiens, UniProt Q9NWZ3); assay type: functional
# Interleukin-1 receptor-associated kinase 4, sequence (Q9NWZ3 whole entry): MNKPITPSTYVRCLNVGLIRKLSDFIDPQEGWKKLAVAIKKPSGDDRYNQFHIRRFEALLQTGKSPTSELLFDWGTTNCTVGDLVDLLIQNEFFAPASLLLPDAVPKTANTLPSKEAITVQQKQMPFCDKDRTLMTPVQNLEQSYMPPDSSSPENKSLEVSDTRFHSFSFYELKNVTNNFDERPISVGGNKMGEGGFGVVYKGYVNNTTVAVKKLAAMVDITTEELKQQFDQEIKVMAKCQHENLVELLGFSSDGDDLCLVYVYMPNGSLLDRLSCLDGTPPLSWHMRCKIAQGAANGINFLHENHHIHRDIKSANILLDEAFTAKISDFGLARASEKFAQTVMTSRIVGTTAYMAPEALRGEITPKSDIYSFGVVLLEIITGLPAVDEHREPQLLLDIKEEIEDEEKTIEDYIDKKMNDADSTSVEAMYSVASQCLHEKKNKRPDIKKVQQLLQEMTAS
# [18] = target: Mitogen-activated protein kinase kinase kinase kinase 4 (Homo sapiens, UniProt O95819); assay type: functional
# Mitogen-activated protein kinase kinase kinase kinase 4, sequence (O95819 whole entry): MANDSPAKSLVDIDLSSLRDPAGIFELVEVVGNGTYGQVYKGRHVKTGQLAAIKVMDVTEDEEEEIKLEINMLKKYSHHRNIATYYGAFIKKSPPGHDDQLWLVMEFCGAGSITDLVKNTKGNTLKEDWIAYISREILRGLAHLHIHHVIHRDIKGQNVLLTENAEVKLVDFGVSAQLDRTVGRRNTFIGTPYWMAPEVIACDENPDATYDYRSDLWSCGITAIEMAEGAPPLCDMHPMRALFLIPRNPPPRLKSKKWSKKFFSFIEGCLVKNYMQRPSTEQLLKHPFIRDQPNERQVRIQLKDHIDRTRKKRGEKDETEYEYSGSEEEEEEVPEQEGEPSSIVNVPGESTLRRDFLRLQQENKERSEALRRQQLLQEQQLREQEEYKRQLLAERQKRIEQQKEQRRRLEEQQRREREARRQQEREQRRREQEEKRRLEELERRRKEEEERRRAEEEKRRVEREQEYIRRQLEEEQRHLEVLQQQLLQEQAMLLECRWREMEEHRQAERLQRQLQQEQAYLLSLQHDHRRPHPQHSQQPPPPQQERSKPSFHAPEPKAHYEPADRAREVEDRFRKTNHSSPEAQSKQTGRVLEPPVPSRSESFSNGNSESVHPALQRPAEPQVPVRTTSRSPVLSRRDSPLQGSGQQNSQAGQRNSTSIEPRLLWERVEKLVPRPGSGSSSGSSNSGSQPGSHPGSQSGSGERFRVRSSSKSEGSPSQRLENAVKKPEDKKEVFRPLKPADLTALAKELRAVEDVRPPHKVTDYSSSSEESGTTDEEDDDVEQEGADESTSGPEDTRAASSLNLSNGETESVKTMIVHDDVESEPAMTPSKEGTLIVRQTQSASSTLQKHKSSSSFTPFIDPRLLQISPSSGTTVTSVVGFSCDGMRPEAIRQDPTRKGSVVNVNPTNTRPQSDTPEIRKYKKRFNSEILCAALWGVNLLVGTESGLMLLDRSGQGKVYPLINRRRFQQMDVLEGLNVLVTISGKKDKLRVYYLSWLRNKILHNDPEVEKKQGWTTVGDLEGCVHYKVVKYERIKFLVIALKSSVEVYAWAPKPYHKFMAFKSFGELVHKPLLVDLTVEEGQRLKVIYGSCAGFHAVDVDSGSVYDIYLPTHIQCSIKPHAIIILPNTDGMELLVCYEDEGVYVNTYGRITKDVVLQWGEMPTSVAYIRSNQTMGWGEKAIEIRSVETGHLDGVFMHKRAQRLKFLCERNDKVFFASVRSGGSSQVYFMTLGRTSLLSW
# [19] = target: DNA dC->dU-editing enzyme APOBEC-3G (Homo sapiens, UniProt Q9HC16); experiment: APOBEC3G deaminase inhibitors, SAR follow-up, biochemical, fluorescence, single-stranded DNA substrate (AID 602136); assay type: functional; details: read-out: IC50_Mean
# DNA dC->dU-editing enzyme APOBEC-3G, sequence (Q9HC16 whole entry): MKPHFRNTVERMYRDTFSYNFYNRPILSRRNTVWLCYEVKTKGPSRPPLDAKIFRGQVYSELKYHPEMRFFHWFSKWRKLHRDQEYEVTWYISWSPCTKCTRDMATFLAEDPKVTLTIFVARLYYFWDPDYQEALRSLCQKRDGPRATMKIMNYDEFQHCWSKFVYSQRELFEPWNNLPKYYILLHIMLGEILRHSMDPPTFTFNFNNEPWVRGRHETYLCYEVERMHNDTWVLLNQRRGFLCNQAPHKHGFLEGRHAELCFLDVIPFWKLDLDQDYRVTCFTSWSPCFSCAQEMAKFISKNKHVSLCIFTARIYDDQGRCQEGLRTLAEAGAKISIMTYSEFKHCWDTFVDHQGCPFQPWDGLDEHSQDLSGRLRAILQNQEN
# [20] = target: DNA dC->dU-editing enzyme APOBEC-3A (Homo sapiens, UniProt P31941); experiment: SAR analysis of small molecule inhibitors of APOBEC3A DNA Deaminase via a fluorescence-based single-stranded DNA deaminase assay.; assay type: functional; details: read-out: IC50_Mean
# DNA dC->dU-editing enzyme APOBEC-3A, sequence (P31941 whole entry): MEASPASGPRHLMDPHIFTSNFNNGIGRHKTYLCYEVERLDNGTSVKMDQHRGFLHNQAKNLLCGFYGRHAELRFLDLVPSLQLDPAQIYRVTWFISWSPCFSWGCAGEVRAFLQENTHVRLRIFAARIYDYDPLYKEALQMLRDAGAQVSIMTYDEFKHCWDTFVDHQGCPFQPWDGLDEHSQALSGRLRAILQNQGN
# INS1 = experiment: beta cell apoptosis inhibitors, cytokine rescue, dose response, luminescence, retest (AID 449756); assay type: functional, cell-based; details: Rattus norvegicus;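 further: cell death triggered by IL-1 beta plus TNF-alpha plus IFN-gamma mixture; protective hits raise ATP signal compared with cytokine alone wells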
# Jurkat = experiment: antigen receptor-induced NF-kB inhibitors, dose response, Jurkat, luciferase reporter, luminescence, B- and T-cell (AID 489004); assay type: functional, cell-based; details: Homo sapiens;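 further: NF-kB luciferase reporter Jurkat cells stimulated with PMA plus ionomycin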
# [21] = Luminescence Cell-Based Dose Retest to Confirm Inhibitors of Cancer Stem Cells. [Related pubchem assays (depositor defined):AID2717, AID2721]; assay type: functional; details: Homo sapiens
# [22] = target: T6, Apoptotic protease-activating factor 1 (Homo sapiens, UniProt O14727); assay type: functional
# T6 sequence (O14727 whole entry): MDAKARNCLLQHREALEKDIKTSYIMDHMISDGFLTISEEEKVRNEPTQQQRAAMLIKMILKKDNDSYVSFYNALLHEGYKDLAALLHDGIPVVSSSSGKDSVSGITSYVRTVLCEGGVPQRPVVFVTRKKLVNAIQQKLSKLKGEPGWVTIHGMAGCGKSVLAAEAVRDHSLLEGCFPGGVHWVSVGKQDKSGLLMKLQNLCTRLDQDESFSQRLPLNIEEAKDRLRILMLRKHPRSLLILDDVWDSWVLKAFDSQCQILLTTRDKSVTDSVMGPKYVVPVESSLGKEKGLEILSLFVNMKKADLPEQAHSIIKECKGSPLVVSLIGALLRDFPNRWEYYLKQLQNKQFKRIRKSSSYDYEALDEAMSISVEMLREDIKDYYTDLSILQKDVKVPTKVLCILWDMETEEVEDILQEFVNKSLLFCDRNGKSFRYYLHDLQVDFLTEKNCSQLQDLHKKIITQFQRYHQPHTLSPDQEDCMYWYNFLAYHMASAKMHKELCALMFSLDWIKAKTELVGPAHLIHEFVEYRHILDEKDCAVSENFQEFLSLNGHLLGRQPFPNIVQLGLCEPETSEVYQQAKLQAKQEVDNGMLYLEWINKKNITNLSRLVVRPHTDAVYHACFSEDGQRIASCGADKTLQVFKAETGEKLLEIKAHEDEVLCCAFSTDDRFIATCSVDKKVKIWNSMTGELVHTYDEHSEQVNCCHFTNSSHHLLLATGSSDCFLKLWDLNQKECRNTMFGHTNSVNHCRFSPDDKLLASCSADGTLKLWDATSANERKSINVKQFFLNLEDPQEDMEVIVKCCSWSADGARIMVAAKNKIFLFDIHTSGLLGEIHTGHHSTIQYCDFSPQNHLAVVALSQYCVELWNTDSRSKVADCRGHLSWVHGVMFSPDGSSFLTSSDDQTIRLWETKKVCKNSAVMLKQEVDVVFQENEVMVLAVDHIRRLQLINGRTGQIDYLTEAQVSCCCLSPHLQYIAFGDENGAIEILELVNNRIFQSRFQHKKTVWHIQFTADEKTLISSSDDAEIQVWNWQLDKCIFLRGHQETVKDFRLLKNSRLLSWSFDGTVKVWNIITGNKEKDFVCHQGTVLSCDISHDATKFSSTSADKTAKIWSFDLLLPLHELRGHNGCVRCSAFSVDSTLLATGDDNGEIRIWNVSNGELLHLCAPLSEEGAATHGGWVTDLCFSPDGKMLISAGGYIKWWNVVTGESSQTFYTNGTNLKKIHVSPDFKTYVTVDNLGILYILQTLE
# [23] = NIH-3T3 fibroblast cytotoxicity, dose response, cytotoxicity control, cell-based, fluorescence, Alamar Blue, secondary assay (AID 2327); assay type: functional;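 further: NIH-3T3 mouse fibroblasts cultured with fluconazole at 8 µg/mL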
# [24] = cytotoxicity in HEK-293T NF-kB-Luc cells, dose response, cytotoxicity control for B/T-cell NF-kB inhibitor project, cell-based, uHTS hits (AID 489019); assay type: functional;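 further: IC50 reflects cytotoxicity as loss of cell viability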
# [25] = C. albicans growth with fluconazole, confirmation, fluorescence, retest (AID 2467); assay type: functional, cell-based
# Activin receptor type-1 = Activin receptor type-1 (Homo sapiens, UniProt Q04771); experiment: Navigating the Kinome. Panel member name: ACVR1; assay type: functional
# Activin receptor type-1, sequence (Q04771 whole entry): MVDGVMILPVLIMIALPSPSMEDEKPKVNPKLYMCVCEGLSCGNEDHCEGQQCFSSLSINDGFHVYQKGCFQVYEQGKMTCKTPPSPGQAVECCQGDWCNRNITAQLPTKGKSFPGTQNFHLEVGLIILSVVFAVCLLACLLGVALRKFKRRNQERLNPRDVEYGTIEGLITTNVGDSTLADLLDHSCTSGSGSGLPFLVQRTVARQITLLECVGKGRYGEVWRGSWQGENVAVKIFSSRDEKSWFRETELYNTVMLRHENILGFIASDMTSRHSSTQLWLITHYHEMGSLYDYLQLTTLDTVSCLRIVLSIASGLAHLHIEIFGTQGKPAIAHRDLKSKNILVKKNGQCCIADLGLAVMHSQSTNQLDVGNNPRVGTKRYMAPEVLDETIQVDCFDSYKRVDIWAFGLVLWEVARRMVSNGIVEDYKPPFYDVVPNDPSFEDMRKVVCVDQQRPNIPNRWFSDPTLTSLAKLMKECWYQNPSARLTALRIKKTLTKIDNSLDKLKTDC
structure (smiles),measurement,setting,value
CC(=O)Nc1ccc(NC(=O)COC(=O)c2[nH]nc3ccccc23)cc1,EC50,Insulin-degrading enzyme [1],> 54.7 µM (inactive)
same,EC50,HEK293 [2],> 54.7 µM (inactive)
same,IC50,HEK293 [3],> 89.2 µM (inactive)
same,EC50,Insulin-degrading enzyme [4],> 54.7 µM (inactive)
CN(C)CCNc1ncnc2c1sc1nc(-c3ccccc3)c3c(c12)CCCC3,CC50,[5],31.1 µM (active)
same,IC50,[6],13 µM (active)
same,AC50,[7],6.93 µM (active)
same,CC50,[8],7.38 µM (active)
same,EC50,Insulin-degrading enzyme [1],21.7 µM (inactive)
same,EC50,HEK293 [2],> 54.7 µM (inactive)
same,IC50,HEK293 [3],10.4 µM (inactive)
same,IC50,Coagulation factor XII,> 50 µM (inactive)
same,EC50,Insulin-degrading enzyme [4],> 54.7 µM (inactive)
same,IC50,Bcl-2-related protein A1,> 20 µM (inactive)
same,AC50,[9],16.2 µM (active)
same,AC50,[10],19.4 µM (active)
same,IC50,[11],7.72 µM (active)
CCCCNc1cc(-c2c[nH]c3ncccc23)ncn1,Ki,[12],0.0631 µM (active)
same,Ki,[13],0.0501 µM (active)
same,Ki,[14],1 µM (active)
same,Ki,[15],0.00631 µM (active)
same,Ki,[16],0.158 µM (active)
same,Ki,[17],1 µM (active)
same,Ki,[18],0.0158 µM (active)
Cn1c(SCC(N)=O)nnc1-c1sc2cc(Cl)ccc2c1Cl,IC50,[19],> 99 µM (inactive)
same,IC50,[20],> 99 µM (inactive)
CC(C)Cn1c(=O)c2cc(Cl)ccc2n2c(SCc3ccc(Cl)cc3)nnc12,IC50,[19],> 99 µM (inactive)
same,IC50,[20],> 99 µM (inactive)
CCCCCc1ccc(OCCCC[n+]2cccc(C)c2)c(CCCCC)c1,AC50,INS1,1.64 µM (active)
same,IC50,Jurkat,4.68 µM (active)
same,AC50,[21],0.694 µM (active)
same,IC50,[6],> 20 µM (inactive)
same,IC50,[22],28.5 µM (active)
same,AC50,[7],15.1 µM (active)
same,EC50,[23],> 150 µM (inactive)
same,IC50,[24],68.8 µM (inactive)
same,EC50,[25],0.755 µM (active)
Cn1c(=O)n(-c2ccc(C(C)(C)C#N)cc2)c2c3cc(-c4cnc5ccccc5c4)ccc3ncc21 [DACTOLISIB],Ki,Activin receptor type-1,1.26 µM (active)
